In PubChem BioAssay (NCI):
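Where inhibition never reached the appropriate level, the endpoint shown equals the highest concentration tested. Otherwise, values were interpolated linearly from a five-concentration, 48-hour dose response in 96-well plates. GI50: concentration for 50% inhibition of growth. Definition used: TGI = concentration required for complete inhibition of growth.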

Legend:
Assay in all cases: NCI anticancer screen, dose series, 48 h
786-0 renal = system: 786-0 renal
A498 renal = system: A498 renal
A549 NSCLC = system: A549 NSCLC
ACHN renal = system: ACHN renal
BT-549 breast = system: BT-549 breast
CAKI-1 renal = system: CAKI-1 renal
CCRF-CEM leukemia = system: CCRF-CEM leukemia
COLO 205 colon = system: COLO 205 colon
DU-145 prostate = system: DU-145 prostate
EKVX NSCLC = system: EKVX NSCLC
HCC-2998 colon = system: HCC-2998 colon
HCT-116 colon = system: HCT-116 colon
HCT-15 colon = system: HCT-15 colon
HL-60(TB) leukemia = system: HL-60(TB) leukemia
HOP-62 NSCLC = system: HOP-62 NSCLC
HOP-92 NSCLC = system: HOP-92 NSCLC
HS 578T breast = system: HS 578T breast
HT29 colon = system: HT29 colon
IGROV1 ovarian = system: IGROV1 ovarian
K-562 leukemia = system: K-562 leukemia
KM12 colon = system: KM12 colon
LOX IMVI melanoma = system: LOX IMVI melanoma
M14 melanoma = system: M14 melanoma
MALME-3M melanoma = system: MALME-3M melanoma
MCF7 breast = system: MCF7 breast
MDA-MB-231 breast = system: MDA-MB-231 breast
MDA-MB-435 = system: MDA-MB-435
MDA-N = system: MDA-N
MOLT-4 leukemia = system: MOLT-4 leukemia
NCI-H226 lung = system: NCI-H226 lung
NCI-H23 lung = system: NCI-H23 lung
NCI-H460 lung = system: NCI-H460 lung
NCI-H522 lung = system: NCI-H522 lung
NCI/ADR-RES ovarian = system: NCI/ADR-RES ovarian
OVCAR-3 ovarian = system: OVCAR-3 ovarian
OVCAR-4 ovarian = system: OVCAR-4 ovarian
OVCAR-5 ovarian = system: OVCAR-5 ovarian
OVCAR-8 ovarian = system: OVCAR-8 ovarian
PC-3 prostate = system: PC-3 prostate
RPMI-8226 leukemia = system: RPMI-8226 leukemia
RXF 393 renal = system: RXF 393 renal
SF-268 CNS = system: SF-268 CNS
SF-295 CNS = system: SF-295 CNS
SF-539 CNS = system: SF-539 CNS
SK-MEL-2 melanoma = system: SK-MEL-2 melanoma
SK-MEL-28 melanoma = system: SK-MEL-28 melanoma
SK-MEL-5 melanoma = system: SK-MEL-5 melanoma
SK-OV-3 ovarian = system: SK-OV-3 ovarian
SN12C renal = system: SN12C renal
SNB-19 CNS = system: SNB-19 CNS
SNB-75 CNS = system: SNB-75 CNS
SR leukemia = system: SR leukemia
SW-620 colon = system: SW-620 colon
T-47D breast = system: T-47D breast
TK-10 renal = system: TK-10 renal
U251 CNS = system: U251 CNS
UACC-257 melanoma = system: UACC-257 melanoma
UACC-62 melanoma = system: UACC-62 melanoma
UO-31 renal = system: UO-31 renal
DLD-1 colon = system: DLD-1 colon
DMS 114 small cell lung = system: DMS 114 small cell lung
HOP-18 NSCLC = system: HOP-18 NSCLC
KM20L2 colon = system: KM20L2 colon
LXFL 529 NSCLC = system: LXFL 529 NSCLC
M19-MEL melanoma = system: M19-MEL melanoma
SNB-78 CNS = system: SNB-78 CNS

CCOC(=O)/C(C#N)=C/c1ccc2c(c1)CC1(C2)Cc2cc(CC)c(C(C)O)cc2C1 (centres undefined)
TGI (786-0 renal): 39 µM
TGI (A498 renal): > 90.4 µM
TGI (A549 NSCLC): > 100 µM
TGI (ACHN renal): > 85.1 µM
TGI (BT-549 breast): 23.4 µM
TGI (CAKI-1 renal): > 100 µM
TGI (CCRF-CEM leukemia): 27.2 µM
TGI (COLO 205 colon): 66.2 µM
TGI (DU-145 prostate): 56.1 µM
TGI (EKVX NSCLC): > 100 µM
TGI (HCC-2998 colon): > 80.9 µM
TGI (HCT-116 colon): 15 µM
TGI (HCT-15 colon): 20 µM
TGI (HL-60(TB) leukemia): 8.51 µM
TGI (HOP-62 NSCLC): 36 µM
TGI (HOP-92 NSCLC): 47.9 µM
TGI (HS 578T breast): 60.8 µM
TGI (HT29 colon): 39.5 µM
TGI (IGROV1 ovarian): 57 µM
TGI (K-562 leukemia): > 52.5 µM
TGI (KM12 colon): 38.8 µM
TGI (LOX IMVI melanoma): 22 µM
TGI (M14 melanoma): 16.8 µM
TGI (MALME-3M melanoma): 24.4 µM
TGI (MCF7 breast): 23.9 µM
TGI (MDA-MB-231 breast): 27.1 µM
TGI (MDA-MB-435): 4.83 µM
TGI (MDA-N): 5.16 µM
TGI (MOLT-4 leukemia): > 58.6 µM
TGI (NCI-H226 lung): > 64.6 µM
TGI (NCI-H23 lung): 39.5 µM
TGI (NCI-H460 lung): 77.1 µM
TGI (NCI-H522 lung): > 100 µM
TGI (NCI/ADR-RES ovarian): 55.9 µM
TGI (OVCAR-3 ovarian): 22.4 µM
TGI (OVCAR-4 ovarian): 49 µM
TGI (OVCAR-5 ovarian): > 93.1 µM
TGI (OVCAR-8 ovarian): 44.4 µM
TGI (PC-3 prostate): 56.8 µM
TGI (RPMI-8226 leukemia): 51.6 µM
TGI (RXF 393 renal): 38.5 µM
TGI (SF-268 CNS): 32.1 µM
TGI (SF-295 CNS): 44.3 µM
TGI (SF-539 CNS): 22.1 µM
TGI (SK-MEL-2 melanoma): 27.2 µM
TGI (SK-MEL-28 melanoma): 38.9 µM
TGI (SK-MEL-5 melanoma): 16.8 µM
TGI (SK-OV-3 ovarian): 98.2 µM
TGI (SN12C renal): 32.4 µM
TGI (SNB-19 CNS): 43.8 µM
TGI (SNB-75 CNS): 46.3 µM
TGI (SR leukemia): > 28.9 µM
TGI (SW-620 colon): 22.5 µM
TGI (T-47D breast): > 100 µM
TGI (TK-10 renal): 84.2 µM
TGI (U251 CNS): 20.3 µM
TGI (UACC-257 melanoma): 45.6 µM
TGI (UACC-62 melanoma): 29.5 µM
TGI (UO-31 renal): 60.8 µM

Nn1c(N=Nc2c(O)[nH]c3c(Cl)cc(Cl)cc23)n[nH]c1=S
TGI (786-0 renal): > 100 µM
TGI (A498 renal): > 100 µM
TGI (A549 NSCLC): > 100 µM
TGI (ACHN renal): > 100 µM
TGI (CAKI-1 renal): > 100 µM
TGI (CCRF-CEM leukemia): > 100 µM
TGI (COLO 205 colon): > 100 µM
TGI (DLD-1 colon): > 100 µM
TGI (DMS 114 small cell lung): > 100 µM
TGI (EKVX NSCLC): > 100 µM
TGI (HCC-2998 colon): > 100 µM
TGI (HCT-116 colon): > 100 µM
TGI (HCT-15 colon): > 100 µM
TGI (HL-60(TB) leukemia): > 100 µM
TGI (HOP-18 NSCLC): > 100 µM
TGI (HOP-62 NSCLC): > 100 µM
TGI (HOP-92 NSCLC): > 100 µM
TGI (HT29 colon): > 100 µM
TGI (IGROV1 ovarian): > 100 µM
TGI (K-562 leukemia): > 100 µM
TGI (KM12 colon): > 100 µM
TGI (KM20L2 colon): > 100 µM
TGI (LOX IMVI melanoma): > 100 µM
TGI (LXFL 529 NSCLC): > 100 µM
TGI (M14 melanoma): > 100 µM
TGI (M19-MEL melanoma): > 100 µM
TGI (MALME-3M melanoma): > 100 µM
TGI (MOLT-4 leukemia): > 100 µM
TGI (NCI-H226 lung): > 100 µM
TGI (NCI-H23 lung): > 100 µM
TGI (NCI-H460 lung): > 100 µM
TGI (NCI-H522 lung): > 100 µM
TGI (OVCAR-3 ovarian): > 100 µM
TGI (OVCAR-4 ovarian): > 100 µM
TGI (OVCAR-5 ovarian): > 100 µM
TGI (OVCAR-8 ovarian): > 100 µM
TGI (RPMI-8226 leukemia): > 100 µM
TGI (RXF 393 renal): > 100 µM
TGI (SF-268 CNS): > 100 µM
TGI (SF-295 CNS): > 100 µM
TGI (SF-539 CNS): > 100 µM
TGI (SK-MEL-2 melanoma): > 100 µM
TGI (SK-MEL-5 melanoma): > 100 µM
TGI (SK-OV-3 ovarian): > 100 µM
TGI (SN12C renal): > 100 µM
TGI (SNB-19 CNS): > 100 µM
TGI (SNB-78 CNS): > 100 µM
TGI (SR leukemia): > 100 µM
TGI (SW-620 colon): > 100 µM
TGI (TK-10 renal): > 100 µM
TGI (U251 CNS): > 100 µM
TGI (UACC-257 melanoma): > 100 µM
TGI (UACC-62 melanoma): > 100 µM
TGI (UO-31 renal): > 100 µM

Nc1nc(N)c2nc(CNc3ccc(C(=O)NC(CCCCNC(=O)c4ccccc4C(=O)O)C(=O)O)cc3)cnc2n1 (centres undefined)
TGI (786-0 renal): > 100 µM
GI50 (A498 renal): 0.0821 µM
TGI (A498 renal): > 100 µM
GI50 (A549 NSCLC): 0.00745 µM
TGI (A549 NSCLC): > 100 µM
GI50 (ACHN renal): 0.00519 µM
TGI (ACHN renal): > 100 µM
TGI (BT-549 breast): > 100 µM
GI50 (CAKI-1 renal): 0.0237 µM
TGI (CAKI-1 renal): > 100 µM
GI50 (CCRF-CEM leukemia): 0.00306 µM
TGI (CCRF-CEM leukemia): > 100 µM
GI50 (COLO 205 colon): 0.537 µM
TGI (COLO 205 colon): > 100 µM
TGI (DU-145 prostate): > 100 µM
GI50 (EKVX NSCLC): 0.036 µM
TGI (EKVX NSCLC): > 100 µM
TGI (HCC-2998 colon): > 100 µM
GI50 (HCT-116 colon): 0.000622 µM
TGI (HCT-116 colon): > 100 µM
GI50 (HCT-15 colon): 0.00522 µM
TGI (HCT-15 colon): > 100 µM
GI50 (HL-60(TB) leukemia): 0.00244 µM
TGI (HL-60(TB) leukemia): > 100 µM
GI50 (HOP-62 NSCLC): 0.0305 µM
TGI (HOP-62 NSCLC): > 100 µM
GI50 (HOP-92 NSCLC): > 100 µM
TGI (HOP-92 NSCLC): > 100 µM
TGI (HS 578T breast): > 100 µM
GI50 (HT29 colon): 0.00566 µM
TGI (HT29 colon): > 100 µM
TGI (IGROV1 ovarian): > 100 µM
TGI (K-562 leukemia): > 100 µM
GI50 (KM12 colon): 0.00485 µM
TGI (KM12 colon): > 100 µM
GI50 (LOX IMVI melanoma): 0.000869 µM
TGI (LOX IMVI melanoma): > 100 µM
TGI (M14 melanoma): > 100 µM
TGI (MALME-3M melanoma): > 100 µM
GI50 (MCF7 breast): 0.00496 µM
TGI (MCF7 breast): > 100 µM
TGI (MDA-MB-231 breast): > 100 µM
TGI (MDA-MB-435): > 31.6 µM
GI50 (MDA-N): 0.00464 µM
TGI (MDA-N): > 100 µM
TGI (MOLT-4 leukemia): > 100 µM
TGI (NCI-H226 lung): > 100 µM
GI50 (NCI-H23 lung): 0.00915 µM
TGI (NCI-H23 lung): > 100 µM
GI50 (NCI-H460 lung): 0.00424 µM
TGI (NCI-H460 lung): > 100 µM
TGI (NCI-H522 lung): > 100 µM
TGI (NCI/ADR-RES ovarian): > 100 µM
TGI (OVCAR-3 ovarian): > 100 µM
TGI (OVCAR-4 ovarian): > 100 µM
TGI (OVCAR-5 ovarian): > 100 µM
GI50 (OVCAR-8 ovarian): 0.0059 µM
TGI (OVCAR-8 ovarian): > 100 µM
GI50 (PC-3 prostate): 0.000432 µM
TGI (PC-3 prostate): > 100 µM
TGI (RPMI-8226 leukemia): > 100 µM
TGI (RXF 393 renal): > 100 µM
GI50 (SF-268 CNS): 0.00841 µM
TGI (SF-268 CNS): > 100 µM
GI50 (SF-295 CNS): 0.0191 µM
TGI (SF-295 CNS): > 100 µM
GI50 (SF-539 CNS): 0.026 µM
TGI (SK-MEL-2 melanoma): > 100 µM
TGI (SK-MEL-28 melanoma): > 100 µM
GI50 (SK-MEL-5 melanoma): 0.0913 µM
TGI (SK-MEL-5 melanoma): > 100 µM
TGI (SK-OV-3 ovarian): > 100 µM
GI50 (SN12C renal): 0.0127 µM
TGI (SN12C renal): > 100 µM
TGI (SNB-19 CNS): > 100 µM
TGI (SNB-75 CNS): > 100 µM
TGI (SR leukemia): > 100 µM
GI50 (SW-620 colon): 0.00342 µM
TGI (SW-620 colon): > 100 µM
TGI (T-47D breast): > 100 µM
TGI (TK-10 renal): > 100 µM
GI50 (U251 CNS): 0.0385 µM
TGI (U251 CNS): > 100 µM
TGI (UACC-257 melanoma): > 100 µM
TGI (UACC-62 melanoma): > 100 µM
TGI (UO-31 renal): > 100 µM
